In patent US9624228B2, “Inhibitors of ERK and methods of use” (KURA ONCOLOGY, INC., priority 2013, dated 2017) one finds IC50 data, which are given here for 47 molecules.

As usually defined, the IC50 is the concentration at which inhibition is half-maximal.

SMILES strings stand for the structures.

The first assay deals with ERK2 enzyme (Homo sapiens (Human), UniProt P28482). Put plainly: Inhibition assay of ERK (Z'-LYTE kinase assay, Ser/Thr 3 peptide substrate). It counts as biochemical. The following applies: In vitro ERK2 enzyme, 100 μM ATP.
Sequence of ERK2 enzyme (P28482 whole entry): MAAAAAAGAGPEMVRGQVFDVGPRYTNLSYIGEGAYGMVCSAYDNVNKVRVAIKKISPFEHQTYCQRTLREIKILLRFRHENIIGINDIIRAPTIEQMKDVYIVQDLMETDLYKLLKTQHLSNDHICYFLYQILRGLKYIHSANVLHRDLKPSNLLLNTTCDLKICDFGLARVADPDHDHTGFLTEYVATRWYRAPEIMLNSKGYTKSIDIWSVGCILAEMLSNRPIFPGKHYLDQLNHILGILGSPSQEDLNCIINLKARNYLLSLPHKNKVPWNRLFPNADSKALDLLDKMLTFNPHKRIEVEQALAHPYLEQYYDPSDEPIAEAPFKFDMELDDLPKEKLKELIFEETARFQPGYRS
In turn, `Cc1cc(-c2n[nH]c3cc4c(cc23)CN([C@@H]2CCCN(C(=O)c3ccccc3)C2)C(=O)N4)ccn1` [Compound 172] displayed an IC50 of under 50 nM.
On the same count and under the same terms, with `Cc1cc(-c2n[nH]c3cc4c(cc23)CN(CCNCc2ccc(F)c(Cl)c2)C(=O)N4)ccn1` [Compound 173] the figure was under 50 nM.
Still for that read-out and setting: with `Cc1cc(-c2n[nH]c3cc4c(cc23)CN([C@@H]2CCCN(c3cccc(Cl)c3)C2)C(=O)N4)ccn1` [Compound 174] the figure was under 50 nM; with `Cc1cc(-c2n[nH]c3cc4c(cc23)CN(CCNCc2ccc(F)cc2)C(=O)N4)ccn1` [Compound 175], under 50 nM.
The same measure, in the same setting: with `Cc1cc(-c2n[nH]c3cc4c(cc23)CN(CCNCc2cccc(Cl)c2)C(=O)N4)ccn1` [Compound 176] the figure was under 50 nM; with `Cc1cc(-c2n[nH]c3cc4c(cc23)CN([C@@H]2CCC[C@H](NCc3ccccc3)C2)C(=O)N4)ccn1` [Compound 177], under 50 nM; with `Cc1cc(-c2n[nH]c3cc4c(cc23)CN([C@@H]2CCCN(CCC(F)(F)F)C2)C(=O)N4)ccn1` [Compound 178], under 50 nM.
Molecule `Cc1cc(-c2n[nH]c3cc4c(cc23)CN([C@@H]2CCCN(C(C)c3ccc(F)cc3)C2)C(=O)N4)ccn1` (some centres unmarked) [Compound 179] displayed a concentration for half-maximal inhibition (IC50) of 50 to 250 nM.
Still for that read-out and setting: with `Cc1cc(-c2n[nH]c3cc4c(cc23)CN([C@@H]2CCCN(C(C)c3cccc(Cl)c3)C2)C(=O)N4)ccn1` (some centres unmarked) [Compound 180] the figure was 50 to 250 nM.
Molecule `Cc1cc(-c2n[nH]c3cc4c(cc23)CN([C@@H]2CCCN(CC3(C)CC3)C2)C(=O)N4)ccn1` [Compound 182] gave a 50% inhibitory concentration (IC50) of 50 to 250 nM.
Still for that read-out and setting: with `Cc1cc(-c2n[nH]c3cc4c(cc23)CN([C@@H]2CCCN(Cc3cnccc3C)C2)C(=O)N4)ccn1` [Compound 183] the figure was 50 to 250 nM.
Same read-out and setting: under `Cc1cc(-c2n[nH]c3cc4c(cc23)CN([C@@H]2CCCN(Cc3cccc(F)c3)C2)C(=O)N4)ccn1` [Compound 184] stands under 50 nM.
On the same count and under the same terms, with `Cc1cc(-c2n[nH]c3cc4c(cc23)CN([C@@H]2CCCN(Cc3cccc(F)c3F)C2)C(=O)N4)ccn1` [Compound 185] the figure was under 50 nM; with `Cc1cc(-c2n[nH]c3cc4c(cc23)CN([C@@H]2CCCN(Cc3cc(C(C)(C)C)no3)C2)C(=O)N4)ccn1` [Compound 186], 50 to 250 nM.
In the case of `Cc1cc(-c2n[nH]c3cc4c(cc23)CN([C@@H]2CCCN(Cc3cc(F)ccc3F)C2)C(=O)N4)ccn1` [Compound 187], the half-maximal inhibitory concentration (IC50) is under 50 nM.
For the molecule `Cc1cc(-c2n[nH]c3cc4c(cc23)CN([C@@H]2CCCN(Cc3cc(C5CC5)on3)C2)C(=O)N4)ccn1` [Compound 188], the IC50 was under 50 nM.
The same measure, in the same setting: under `Cc1cc(-c2n[nH]c3cc4c(cc23)CN(C2CN(CCC3CC3)C2)C(=O)N4)ccn1` [Compound 189] stands 50 to 250 nM; under `Cc1cc(-c2n[nH]c3cc4c(cc23)CN([C@@H]2CCCN(Cc3ccc(F)c(F)c3)C2)C(=O)N4)ccn1` [Compound 190], under 50 nM; under `Cc1cc(-c2n[nH]c3cc4c(cc23)CN(C2CN(Cc3ccccc3)C2)C(=O)N4)ccn1` [Compound 191], under 50 nM.
On to `Cc1cc(-c2n[nH]c3cc4c(cc23)CN(C2CN(CCc3ccccc3)C2)C(=O)N4)ccn1` [Compound 192], for which the IC50 fell in the range of 50 to 250 nM.
Molecule `Cc1cc(-c2n[nH]c3cc4c(cc23)CN([C@@H]2CCCN(CC(F)(F)F)C2)C(=O)N4)ccn1` [Compound 193] registered a concentration for half-maximal inhibition (IC50) of under 50 nM.
The same measure, in the same setting: under `Cc1cc(-c2n[nH]c3cc4c(cc23)CN([C@@H]2CCCN(C3CCCCC3)C2)C(=O)N4)ccn1` [Compound 194] stands 50 to 250 nM; under `Cc1cc(-c2n[nH]c3cc4c(cc23)CN([C@@H]2CCCN(Cc3sc(C)nc3C)C2)C(=O)N4)ccn1` [Compound 195], 50 to 250 nM.
The same measure, in the same setting: with `Cc1cc(-c2n[nH]c3cc4c(cc23)CN([C@@H]2CCCN(Cc3ccc(F)cc3F)C2)C(=O)N4)ccn1` [Compound 196] the figure was under 50 nM.

The assay is the same for the next values; noted with them: In vitro, ERK2 enzyme 0.47 ng/μL, 100 μM ATP.
Turning to `Cc1cc(-c2n[nH]c3cc4c(cc23)CN(C2CN(CC3CC3)C2)C(=O)N4)ccn1` [Compound 198], the IC50 fell in the range of 250 to 1000 nM.
Same read-out and setting: under `Cc1cc(-c2n[nH]c3cc4c(cc23)CN([C@@H]2CCCN(c3ccc(F)cn3)C2)C(=O)N4)ccn1` [Compound 199] stands under 50 nM; under `Cc1cc(-c2n[nH]c3cc4c(cc23)CN(C2CN(Cc3ccccc3)CC(F)(F)C2)C(=O)N4)ccn1` (centres unmarked) [Compound 200], under 50 nM; under `Cc1cc(-c2n[nH]c3cc4c(cc23)CN(C2CN(CC3CCCC3)CC(F)(F)C2)C(=O)N4)ccn1` (centres unmarked) [Compound 201], 250 to 1000 nM.
For the molecule `Cc1cc(-c2n[nH]c3cc4c(cc23)CN(C2CN(Cc3cc(F)cc(F)c3)CC(F)(F)C2)C(=O)N4)ccn1` (centres unmarked) [Compound 202], the IC50 was 250 to 1000 nM.
Still for that read-out and setting: with `Cc1cc(-c2n[nH]c3cc4c(cc23)CN([C@@H]2CCCN(CC(=O)C(C)(C)C)C2)C(=O)N4)ccn1` [Compound 203] the figure was under 50 nM.
Same read-out and setting: under `Cc1cc(-c2n[nH]c3cc4c(cc23)CN(C2CCCCC2)C(=O)N4)ccn1` [Compound 204] stands under 50 nM; under `Cc1cc(-c2n[nH]c3cc4c(cc23)CN(C2CCCC2)C(=O)N4)ccn1` [Compound 205], under 50 nM; under `Cc1cc(-c2n[nH]c3cc4c(cc23)CN([C@@H]2CCN(CC3CCCC3)C2)C(=O)N4)ccn1` [Compound 206], 250 to 1000 nM.
On the same count and under the same terms, under `Cc1cc(-c2n[nH]c3cc4c(cc23)CN([C@@H]2CCN(CCC(C)C)C2)C(=O)N4)ccn1` [Compound 207] stands 50 to 250 nM.
In turn, `Cc1cc(-c2n[nH]c3cc4c(cc23)CN(CC2CCCN(Cc3ccccc3)C2)C(=O)N4)ccn1` (centres unmarked) [Compound 208] registered an IC50 of 50 to 250 nM.
On the same count and under the same terms, with `Cc1cc(-c2n[nH]c3cc4c(cc23)CN([C@@H]2CCCN(CC(=O)C(C)C)C2)C(=O)N4)ccn1` [Compound 209] the figure was under 50 nM.
The same measure, in the same setting: with `Cc1cc(-c2n[nH]c3cc4c(cc23)CN([C@@H]2CCCN(C3CCC3)C2)C(=O)N4)ccn1` [Compound 210] the figure was 50 to 250 nM.
On the same count and under the same terms, under `Cc1cc(-c2n[nH]c3cc4c(cc23)CN(CC2CCOCC2)C(=O)N4)ccn1` [Compound 211] stands under 50 nM; under `Cc1cc(-c2n[nH]c3cc4c(cc23)CN(CC2CCCC2)C(=O)N4)ccn1` [Compound 212], under 50 nM.
For `Cc1cc(-c2n[nH]c3cc4c(cc23)CN(CC2CCCCC2)C(=O)N4)ccn1` [Compound 213], the IC50 was under 50 nM.
Take `Cc1cc(-c2n[nH]c3cc4c(cc23)CN([C@@H]2CCN(CC(F)(F)F)C2)C(=O)N4)ccn1` [Compound 214]: the IC50 is under 50 nM.
The same measure, in the same setting: with `Cc1cc(-c2n[nH]c3cc4c(cc23)CN([C@@H]2CCCN(C3CCCC3)C2)C(=O)N4)ccn1` [Compound 215] the figure was 50 to 250 nM.
`Cc1cc(-c2n[nH]c3cc4c(cc23)CN([C@@H]2CCCN(C(C)C(F)(F)F)C2)C(=O)N4)ccn1` (some centres unmarked) [Compound 216] returned an IC50 of under 50 nM.
Molecule `Cc1cc(-c2n[nH]c3cc4c(cc23)CN(Cc2ccccc2Cl)C(=O)N4)ccn1` [Compound 217] returned an IC50 of under 50 nM.
Consider `Cc1cc(-c2n[nH]c3cc4c(cc23)CN(Cc2ccccc2C(F)(F)F)C(=O)N4)ccn1` [Compound 218], for which the IC50 was under 50 nM.
For `Cc1cc(-c2n[nH]c3cc4c(cc23)CN(C2CCOC(C)(C)C2)C(=O)N4)ccn1` (centres unmarked) [Compound 219], the IC50 is under 50 nM.
`Cc1cc(-c2n[nH]c3cc4c(cc23)CN(CCC2CCOCC2)C(=O)N4)ccn1` [Compound 220] showed a half-maximal inhibitory concentration (IC50) of under 50 nM.
